EP3389676B1, “DOSAGE REGIMEN OF SODIUM SELENITE IN THE TREATMENT OF CANCER” (Pharma Nord ApS, priority 2015, dated 2017)

Assays:
[1] = system: patients with advanced cancer diseases; experiment: Phase I dose-escalation trial of intravenously administered sodium selenite: toxicity and MTD; type: in vivo, human
Protocol: In a previous study, the present inventors carried out the first in-human phase-I trial to determine the MTD of intravenously administered sodium selenite in patients with advanced cancer diseases.
This phase I trial is an open-label dose-escalation study of i.v. administered sodium selenite. Each cohort consists of three patients who are treated with dosages regimens according to a predefined schedule having the two-step dosage regimen.
Serious toxicity in primarily the brain and the heart has been recorded in patients treated with high doses of selenite.
With a few exceptions, all patients visited the clinic before and after infusion, at least once a week during the treatment, before each chemotherapy treatment and at the end of treatment. At these occasions, the medical history is recorded, and a physical examination is performed. Patients undergo CT or PET-CT examination one week before the start, three days after the completion of the selenite treatment and after the final chemotherapy treatment. Routine blood parameters are analysed before, during and after the treatment. The ECG is examined before the start and after both the selenite and chemotherapy treatments.

[2] = Pharmacokinetics: plasma selenium by ICP-MS, one compartment infusion model; type: in vivo, human
Protocol: Blood samples are collected about 5 minutes prior and post infusion at all treatments. The plasma fractions are obtained by centrifugation and stored at -70°C until analyses.
Pharmacokinetic analyses are performed by using the Win-Nonlin program Standard Edition version 1.5 (Pharsight Corporation, Mountain View, CA, USA).
The one compartment infusion model was used for the evaluation of the pharmacokinetics. The reciprocal concentrations were used as weights for the iterative procedure. […] AUC values during the entire treatment period (i.e. from day 0 to day 35) were evaluated by applying the trapezoidal rule to estimated time-concentration curves.

[3] = system: patients with advanced cancer diseases; details: SECAR clinical phase I study; intermittent daily infusions (20-40 minutes); Brodin et al. 2014; cited from earlier work
cancer patients = details: cumulative intravenous administration of 100 mg; reports about a century ago; cited from earlier work

Structure (SMILES): O=[Se](O)O [sodium selenite]
- Toxicity registered from similar dose, during similar time but as intermittent infusion ([1]; 3.0 mg/m^2, cohort 2): 3.0 mg/m^2, cohort 2, no certain toxicity,
- Toxicity registered from similar dose, during similar time but as intermittent infusion ([1]; 4.5 mg/m^2, cohort 3): very mild toxicity
- Toxicity registered from similar dose, during similar time but as intermittent infusion ([1]; 6.0 mg/m^2, cohort 4): 6.0 mg/m^2, cohort 4, mild toxicity
- Toxicity registered from similar dose, during similar time but as intermittent infusion ([1]; 9.0 mg/m2, cohort 5): gr 1 toxicity
- Toxicity registered from similar dose, during similar time but as intermittent infusion ([1]; 20.4 mg/m^2, cohort 7): grade 2 toxicity
- Toxicity registered from similar dose, during similar time but as intermittent infusion ([1]; 38.4 mg/m^2, cohort 10): 38.4 mg/m^2, cohort 10, gr 3 & gr 4 toxicity
- duration of dose-limiting toxicity (DLT) ([1]; DLT appeared some hours after selenite infusion, without persisting toxicity or sequelae): 6 to 8 h
- bone marrow toxicity ([1]; at MTD dose (10.2 mg/m^2) and below): no bone marrow toxicity was evident
- MTD for repeated infusions ([1]; cohort 8, total dose given as intermittent infusion over similar time): 30.6 mg/m2
- toxicity mainly observed as ([1]; could be dose-limiting in spite of antiemetic treatment): nausea, vomiting and fatigue
- most significant adverse effects ([1]; especially at high dose levels such as beyond MTD): heart toxicity with signs of ischemia, confusion and unconsciousness
- MTD ([1]; intravenously administered, previous first in-human phase-I trial, well tolerated at doses up to this value): 10.2 mg/m^2
- plasma selenite concentration at the end of the treatment ([2]; high doses of repeated selenite administration): returned to the baseline levels
- plasma selenite concentration with respect to the total dose ([2]; in vivo): linear increase
- maximum tolerated dose [3]: approximately 10.2 mg/m^2
- toxic effects (cancer patients): no incidence of toxic effects
